Data set [1] can be described thus: Oxidative stability index (OSI). The following applies: 80° C., air flow […]. The class given is physicochemical. As for the experimental part: Oxidative stability index (OSI). An Oxidative Stability Instrument (Omnion, Rockland, Mass.) was used to measure induction times. Five grams of tricaprylin, EPAX 5500 (fish oil TAG, Pronova Biocare, Sandefjord, Norway), and SL which was deacidified by alkali-liquid extraction were placed into the disposable borosilicate glass reaction tubes with disposable pipets. The heating temperature was 80° C. The polycarbonate conductivity tubes were filled with deionized water and he probes were connected. After temperature reached 80° C., air was bubbled in. […] OSI time was determined with an on-line computer, which monitored the conductivity vs time and plotted the induction period automatically. OSI values at 80° C. were converted to AOM and OSI values at 97.8° C.

A short description of data set [2]: TBA (2-thiobarbituric acid) lipid oxidation test. In kind it is physicochemical. The following applies: 1, 2, and 4% α-tocopherol in SL, after 48 hours. On the procedure: TBA. A modified extraction 2-thiobarbituric acid method was used, Salih, et al., Poult. Sci., 66:1483-1488 (1987). The TBA test expresses lipid oxidation in milligram malonaldehyde (secondary oxidation product of polyunsaturated fatty acids) per kilogram of sample. 1±0.002 grams of SL was mixed with 0.01, 0.02, and 0.04 grams of α-tocopherol in a 25 mL flask and left at room temperature without protection from light for 12, 24, and 48 hours. Each sample was then purged with nitrogen and stored at −90° C. until assay. One milliliter of 6% BHT in ethanol and 25 mL 5% TCA solution in distilled water were added to each sample and blended. A 2 mL aliquot of the blended sample was mixed with 0.02 M TBA solution (3 mL) in screw capped test tubes. After vortexing (30 sec.), the tubes were incubated in boiling water for 30 min., cooled and the absorbance against blank was measured at 535 nm. A 5 μL aliquot of TEP (0.92 g/mL) was diluted to 5 mL with 5% TCA solution and diluted to prepare various concentrations ranging from […]. Each dilution was incubated and the absorbance against blank was measured after cooling. Standard curve was plotted using absorbance values vs amount of TEP which was converted from concentration.

Each structure is given as a SMILES string.

Consider `CCCCCCCC(=O)OCC(COC(=O)CCCCCCC)OC(=O)CCCCCCC` [tricaprylin, 1,2,3-trioctanoyl glycerol], for which the OSI value entry in data set [1] is reported as “quite stable to oxidation”.

With `Cc1c(C)c2c(c(C)c1O)CC[C@@](C)(CCC[C@H](C)CCC[C@H](C)CCCC(C)C)O2` [α-tocopherol], the “antioxidant effect on SL (TBA)” value in data set [2] is “reduced the oxidation of SL significantly”.

For the origin of these results see US6369252B1, “Structured lipids” (The University of Georgia Research Foundation, Inc., priority 1998, dated 2002).
